How the values were obtained:
Conditions in all cases: addition of coinitiator to onium salt composition
film speed = experiment: film speed
Source text: Examples of onium salts useful in the invention can be found in published European Patent Application 0 408227A1. The preferred onium salts for use in the invention are diphenyliodonium salts such as diphenyliodonium hexafluorophosphate, arsenates, antimonates, etc., and, more particularly,hexafluoro-antimonate. Onium salts of simple anions such as chlorides, bromides, etc. are also useful in free radical polymerizable compositions. A particularly preferred onium salt is OPPI below. Addition of a coinitiator such as NPG improves film speed, pencil hardness and double bond conversion. A particularly preferred initiator system is a combination of an iodofluorone in accordance with the invention such as TIHF or DIBF, an amine such as NPG or DIDMA and an onium salt. A preferred molar ratio of fluorone to onium salt to amine is about 1:2:3. […] These onium salt formulations are illustrated in the following Examples 35-37.

[1] = double bond conversion (C=C% Conversion) by FTIR
Method: (§1) To a resin formulation consisting of 15 parts urethane diacrylate, 15 parts DPHPA, 20 parts TPGDA and 40 parts TMPTA was added DIDMA, initiator and (4-octyloxyphenyl)phenyliodonium hexafluoroantimonate (OPPI). The samples were coated to a thickness of 15 microns and exposed to a 75 W tungsten halogen dental lamp (focused through an optical fiber) at a distance of 0.75 inch at which the Light intensity was about 0.40 W/cm^2. The molar ratios are indicative of the amounts of fluorone to onium salt to amine coinitiator. The double bond conversion was determined by FTIR spectroscopy. The pencil hardness of a given test sample is measured by holding a pencil at a 45° angle to the sample and drawing across it towards the person testing it. Using the pencils in an order from softest to hardest, the first pencil that scratches the surface is assigned as the pencil hardness of the sample. The pencil hardness scale is as follows from softest to hardest: 4B, 3B, 2B, B, HB, H, 2H, 3H, 4H, 6H. For instance, if a 2H pencil is the first pencil to scratch the surface then the pencil hardness is 2H.

pencil hardness = experiment: pencil hardness
Method: as §1
At the extreme ends of the scale, it is impossible to determine the actual pencil hardness. […] Likewise, if the 4B pencil scratches the sample, the only assignment that can be made is <4B, unless it is a lot softer than 4B in which case a <<4B can be assigned. A pencil hardness of 4H is generally considered satisfactory. Pencil hardness data was greater than 6H after 30 seocnd exposure for all samples except for the control samples without amine (1:2:0). The controls were all less than 4B an 0.05 wt %, 0.10 wt %, and 0.15 wt %.
Photosensitive compositions were prepared from the resin formulation of Example 35 containing 1% NPG and 0.05% DIBF or 0.05% DIEF. The samples were exposed under the conditions shown in the following table and pencil hardness was measured.
Diphenyliodonium hexafluoroantimonate was added to DIBF samples.
Samples were also prepared using 1% DIDMA in addition to the fluorone for a 20:1 weight ratio.
Samples were also prepared from the same resin formulation containing 0.1% DIBF in addition to the coinitiator listed in the following Table 9 with the exposure condition and pencil hardness results shown.
Using the resin formulation of Example 36, photosensitive compositions were prepared using TIHF, DIDMA and OPPI at a concentration of 0.21% and in the molar ratios shown in Table 10 which follows. Exposure was conducted with the dental lamp at a distance of 1 inch from the sample to provide an intensity of about 0.26 W/cm^2. Molar ratios are fluorone:onium salt:amine.

O=C(O)CNc1ccccc1 [NPG, N-phenylglycine, reference compound]
improves: film speed (film speed) | double bond conversion [1] | Pencil hardness (pencil hardness)
